For test [1], the system named is U-87MG cells. Description: Effect of cRGD and RGD peptides on growth of human glioma cells (viable cell count by trypan blue dye exclusion; morphology under microscope). Type of test: cell-based. The conditions noted are these: 18 hours; for % inhibition: viable cells vs untreated control. How it is done:
(§1) Human glioblastoma, U-87MG, and U-373MG cells were obtained from the American Type Culture Collection, Rockville, MD and grown in Dulbecco's modified Eagle's medium supplemented with 10% fetal calf serum (Hyclone Laboratories Inc. Logan, UT), sodium pyruvate (55 mg/L), sodium bicarbonate (1.2 g/L), HEPES (1.2 g/L) and gentamicin (50 µg/ml). U-251MG cells were provided by Dr. G.Y. Gillespie, University of Alabama at Birmingham, Alabama, and were grown in the above media.
(§2) Semi-confluent monolayers of U-87MG, U-251MG and U-373MG cells were treated with different concentrations of cRGD for 18 hours at 37° C incubator with 5% CO2. One set of cells served as untreated control. The cells were monitored under microscope for morphological changes. Most of the cRGD (10 µg/ml)-treated U-87MG (Figure 2; C=control) and U-373MG cells were rounded up. […] The number of viable cells (both treated and untreated) were then counted by trypan blue dye exclusion method using a hemacytometer (Hausser Scientific, Horsham, PA) and percent inhibition was calculated (Table 1).

Test [2] concerns U-251MG cells. The test is described as above. Type of test: cell-based. Particulars: 18 hours; for % inhibition: viable cells vs untreated control. On the procedure: as §1, §2
Test [3] deals with U-373MG cells. The description is as above. Format: cell-based. Particulars: 18 hours; for % inhibition: viable cells vs untreated control. How it is done:
as §1, §2

The subject of test [4] is U-87MG cells. Description: U-87MG-induced spheroid formation in liquid culture. Type of test: cell-based, Human. The conditions noted are these: treated again after 48 hours, further 72 hours. On the procedure:
U-87MG cells can be grown either as a monolayer or as multicellular three-dimensional spheroids (500-1,000 µm) in liquid culture. Since spheroids closely resemble the architecture of a tumor in vivo, the cultures were contacted with cRGD or RGD to determine if treatment had any effect on spheroid formation. U-87MG cells (5 ×10^5-1×10^6) were mixed with either cRGD (100µg) or RGD (100µg) peptide or PBS (as untreated control) and incubated at 4° C for 30 minutes. Treated and untreated cells were then seeded onto 24-well plate and incubated further at 37° C. Forty eight hours later; the treated cells were treated again with respective peptides and incubated for 72 hours.
In a second study, U-87MG cells were allowed to grow (in a 24-well plate) for 24 hours before the addition of cyclic (50 µg) or linear (50 µg) peptide. One set of cells, with PBS alone, served as untreated control. Forty eight hours later, the cells were treated again with respective cRGD (50 µg) or RGD (50 µg) peptides and incubated for an additional 72 hours.

For test [5], the system named is U-87MG cells. Description: Effect of caspase-3 and caspase-9 inhibitors on cell death induced by cRGDfV (viable cell count, percent survival). Format: cell-based, Human. Particulars: U-87MG pretreated with DEVD-FMK (10 µM) or LEHD-FMK (10 µM) for 90 minutes; cRGDfV 20 µg/ml, 18 hours. The text has this:
To determine whether the observed killing of glioma cells was due to apoptosis, we used inhibitors of caspase-3 (DEVD-FMK) and caspase-9 (LEHD-FMK), two of the cysteine aspartyl proteases, known to be involved in apoptosis (see Salvesen GS, Dixit VM (1997) Cell 91:443-446; Cohen GM (1997) Biochem J326:1-16; Janicke RU, Sprengart ML, Wati MR, Porter AG (1998) J Biol Chem 273:9357-9360; Cardone MH, Roy N, Stennicke, HR, Salvesen GS, Franke TF, Stanbridge E, Frisch S, Reed JC (1998) Science 282:1318-1321; Sakahira H, Enari M, Nagata S (1998) Nature 391:96-99). Caspase-3 is required for morphological changes and cleavage of poly(ADP-ribose) polymerase (PARP), a cellular enzyme implicated in DNA repair mechanism. Caspase-9 is involved in cytochrome c-induced apoptosis by activating procaspase-3 which finally leads to apoptosis. Briefly, U-87MG and U-251MG cells were harvested from monolayer culture and were treated with DEVD-FMK (10 µM) or LEHD-FMK (10 µM) for 90 minutes at 37°C. One set of cells without any inhibitor served as control. Cells were then washed and incubated in the presence or absence of cRGDfV (20 µg/ml) at 37°C, 5% CO2 for 18 hours. The number of viable cells, both in control and treated groups were counted and percent survival was determined.

The % inhibition is how much of the control response was suppressed. A high value points to strong suppression.

For `N=C(N)NCCC[C@H](N)C(=O)NCC(=O)N[C@@H](CC(=O)O)C(=O)O` [RGD, H-Arg-Gly-Asp-OH, reference compound], the “% inhibition” value in test [1] (10 ug/ml) worked out at 0%; in test [1] (20 ug/ml) it was 3.5%; in test [2] (10 ug/ml), 0%; in test [2] (20 ug/ml), 13%; in test [3] (10 ug/ml), 6.7%; in test [3] (20 ug/ml) it was 0%. For the same compound, in test [4] (first study: 100µg peptide mixed with cells), the “effect on spheroid formation” value is “did not appear to effect spheroid formation”.

As for cyclo(Arg-Gly-Asp-D-Phe-Val) [cRGD], the morphological changes entry was “rounded up” in test [1] (10 µg/ml), “no significant morphological changes” in test [2] (10 µg/ml) and “rounded up” in test [3] (10 µg/ml). Further, the “% inhibition” value in test [1] (10 ug/ml) is recorded as 52.9%; in test [1] (20 ug/ml), 70.6%; in test [2] (10 ug/ml) it was 0%; in test [2] (20 ug/ml), 5.9%; in test [3] (10 ug/ml), 46.7%; in test [3] (20 ug/ml), 80.0%. Besides, the “number of viable cells after cRGDfV treatment” value in test [5] is “inability of cRGDfV to reduce the number of viable U-87MG cell”. In test [4] (first study: 100µg peptide mixed with cells, vs untreated control), the “reduction of the size of the spheroids” value is reported as “at least 70%”. In test [4] (second study: cells grown 24 hours, 50 µg peptide), the “effect on spheroid formation” value is on record as “significant inhibitory effect on the spheroid formation”.

The record behind these values is patent EP1002543A1, “Pharmaceutical compositions for the therapy of glioma or prostate cell proliferative disorders containing cyclic rgd compounds” (JCR PHARMACEUTICALS CO., LTD., priority 1998, dated 2000).
